Measurements reported in paper PMC8467576, “Novel Ubiquitin Specific Protease-13 Inhibitors Alleviate Neurodegenerative Pathology” (Metabolites, 2021).
Several values for one entry are separate records, joined by “and”; a condition that tells them apart may be missing. Identical values can stand only once. Like-named read-outs stand apart in the source and are kept apart here.

Key:
[1] = Pharmacokinetics in wild type C57BL6 mice (brain and serum, UHPLC-MS/MS); type: in vivo; conditions: C57BL/6, mouse, ip, 10 mg/kg I.P.; for AUC: over 12 h; for half-life: read-out: T1/2 (elimination) (converted)
Description: Wild type C57BL6 mice were injected with 10 mg/kg BK50118-C versus DMSO, and the brain and serum were isolated at 0, 1, 2, 4, 6, 8 and 12 h; extracted in water and examined by mass spectrometry. […] Elimination (T1/2) was 2.32 h for brain and 1.84 h in serum.
C57BL/6 mice received a single intraperitoneal dose (10 mg/kg) of BK50118-C. Brain and serum samples were collected at 1, 2, 3, 4, 8 and 12 h (n = 3 per time point). Animals injected with vehicle (DMSO) were used for background subtraction. Stock solution of the drug (1 mg/mL) and internal standards were prepared in methanol. Intermediate solutions used for the calibrators and control samples were serial-diluted in methanol/water (1:1). Preparation of the calibration curve standards and quality samples (QC) were performed by mixing the intermediate dilutions in blank samples (brain homogenates, serum). The internal standard working solution contained deuterium labeled BK50118-C-d7 at the concentration of 5 ng/mL diluted in acetonitrile (ACN)/ethyl acetate (4:1). Serum and brain samples were stored at −80 °C and then thawed to room temperature prior to preparation. The brains were homogenized in MilliQ water (1 mg brain: 10 µL water). Proteins were precipitated in both brain and serum samples by mixing 25 µL aqueous sample with 75 µL internal standard working solution. The mixture was centrifuged at 12,300× g for 5 min. Thereafter, 75 µL of each supernatant and 25 µL of MilliQ water were pipetted into a 96-well PCR plate (Fisher Scientific, Dawsonville, GA, USA).
The concentrations of BK50118-C in the brain tissue and serum samples were measured by ultrahigh performance liquid chromatography tandem mass spectrometry (UHPLC-MS/MS). Briefly, the UHPLC-MS/MS system included an Elute HTG binary gradient UHPLC pump, an Elute column oven and an EVOQ Elite triple quadrupole mass spectrometer (all from Bruker Daltonik GmbH, Bremen, Germany) equipped with an electrospray ionization (ESI) source operating in a positive mode. The samples were injected by use of a PAL auto sampler (CTC Analytics, Zwingen, Switzerland) equipped with a 10-µL sample loop; the samples were kept in a PAL stack cooler for 6 microtiter plates and operating at +6 °C. The system was controlled by a Compass 2.0/HyStar 4.0 software (Bruker); the compound screening and quantitation was performed by a TASQ 2.2 data acquisition and processing software (Bruker). The mass spectrometer was supplied by nitrogen and air generated by a Genius 3045 nitrogen/air generator (Peak Scientific Instruments, Inchinnan, Scotland, UK). The ESI parameters were as follows: probe gas flow 50, nebulizer gas flow 60, probe temperature +400 °C, cone gas flow 20, cone temperature +350 °C, CID gas Ar 1.5 mTorr. The mass spectra were scanned in the MRM mode to find the optimal collision energies for the test compounds and their respective precursor ions.
For chromatographic separation, an YMC-Ultra HT Hydrosphere C18 column (2.0 × 100 mm, 2 µm particle size) and an YMC-Hydrosphere 2.1 × 5 mm guard column (YMC Co. Ltd., Kyoto, Japan) were used. The mobile phase A was 10 mM ammonium formate, pH 4.3, in water; the mobile phase B was 10 mM ammonium formate, pH 4.3, in 10% water, 50% acetonitrile and 40% isopropyl alcohol. The mobile phase gradient was as follows (min—A/B%): 0 min—50/50, 0.5 min—50/50, 2.0 min—20/80, 3 min—20/80, 3.1 min—50/50, 4.5 min—50/50. The flow rate was 450 µL/min, and the column temperature was set at 50 °C. The sample injection volume was 10 µL.

human alpha-synuclein = experiment: Alpha-synuclein levels in TgA53T mice (WB, ELISA, DAB staining); type: in vivo, mouse; conditions: vs DMSO; for reduction of number of human alpha-synuclein positive neurons: 40 mg/Kg I.P. daily for 7 days
Description: Male and female TgA53T mice (15 months old) were treated daily with intraperitoneal injection of DMSO versus 10 mg/kg or 40 mg/kg BK50118-C for 7 days. […] ELISA measurement of alpha-synuclein in the same extracts (Figure 4C) confirmed that human alpha-synuclein was reduced by about 30% (10 mg/kg) and 56% (40 mg/kg), respectively (Figure 4C).
BK50118-C is one of novel small molecule inhibitors of USP13 synthesized in our laboratory. For BK50118-C treatment, approximately 15 months old (±1 month) male and female TgA53T mice were treated with intraperitoneal injection of vehicle (DMSO) or BK50118-C at the daily dosage of 10 mg/Kg or 40 mg/Kg for 7 days. Animals were age and sex-matched in their respective treatment cohorts. All animals were sacrificed after treatment. All experiments were conducted in full compliance with the recommendations of Georgetown University Animal Care and Use Committee. These experiments were conducted under animal protocol No. 2016-1194 titled, Misfolded Protein Clearance in Neurodegeneration, which was approved by the Georgetown University IACUC. Protocol Information: IACUC Protocol Number: 2016-1194. Protocol Approval Date: 14 September 2020 Expiration Date: 14 September 2023.
To extract the soluble proteins from mouse midbrain lysates, tissues were isolated and homogenized in 1x STEN buffer (50 mM Tris (pH 7.6), 150 mM NaCl, 2 mM EDTA, 0.2% NP-40, 0.2% BSA, 20 mMPMSF and protease cocktail inhibitor), centrifuged at 10,000× g for 20 min at 4 °C, and the supernatant containing the soluble protein fraction was collected. Extracts were analyzed by Western blot (WB) on 4–12% SDS NuPAGE Bis-Tris gel (Invitrogen, NP0301BOX). Beta-actin (β-actin) was probed (1:3000) with monoclonal antibody (Emdmillipore, MAB1501R, Burlington, MA, USA). Human alpha-synuclein was probed (1:2000) with monoclonal antibody (Thermo Fisher, AHB0261, Rockford, IL, USA). USP13 was probed (1:1000) with polyclonal antibody (ThermoFisher, PA5-12014, Rockford, IL, USA). Ubiquitin was probed (1:5000) with polyclonal antibody (Thermo Fisher, PA3-16717, Rockford, IL, USA). WBs were quantified by densitometry using Quantity One 4.6.3 software (Bio Rad, Hercules, CA, USA) and Image J.
The ELISA for USP13 (MyBioSource, Cat # MBS9335287, San Diego, CA, USA), Human alpha-synuclein (Biolegend, Cat # 844101, San Diego, CA, USA) and specific p-Tau ser396 (Invitrogen, KHB7031, Waltham, MA, USA) were performed on cell or brain tissue extracts as described above according to manufacturers’ protocol.
DAB staining was performed for alpha-synuclein (Thermo Fisher, AHB0261, Rockford, IL, USA) on the 20 µm thick mouse brain sections, and stereological counting of alpha-synuclein+ neurons counterstained with Nissl was conducted.

In the case of `Fc1ccc2nccc(OCc3ccccc3)c2c1` [BK50118-C, 4-benzyloxy-6-fluoroquinoline], the Kp ([1]; brain and serum, read-out: Ratio of Serum/Brain) is reported as 0.28, the Cmax ([1]; brain) is reported as 81.5 nM and 20.6 ng/mL and the Tmax ([1]; brain) is reported as 1 h. The AUC ([1]; brain) was 0.164 ± 0.0395 µM·h, the half-life ([1]; brain) was 2.32 h and the Cmax ([1]; serum) was 89.7 ng/mL and 355 nM. For the same compound, the Tmax ([1]; serum) was 1 h, the AUC ([1]; serum) was 0.599 ± 0.143 µM·h and the half-life ([1]; serum) was 1.84 h. The “reduction of human alpha-synuclein in midbrain extracts (ELISA)” value (human alpha-synuclein; 10 mg/kg I.P. daily for 7 days) was “about 30%”, the “human alpha-synuclein in midbrain lysates (WB)” value (human alpha-synuclein; 10 mg/kg or 40 mg/kg I.P. daily for 7 days) was “significantly reduced” and the “reduction of human alpha-synuclein in midbrain extracts (ELISA)” value (human alpha-synuclein; 40 mg/kg I.P. daily for 7 days) was roughly 56%. For the same compound, the “reduction of number of human alpha-synuclein positive neurons” value (human alpha-synuclein; cortex) was 42% and the “reduction of number of human alpha-synuclein positive neurons” value (human alpha-synuclein; striatum) was 40%.
